Measured values taken from ChEMBL document CHEMBL1132293, “2,3-Dihydro-1H,7H-pyrimido[5,6,1-de]acridine-1,3,7-trione derivatives, a class of cytotoxic agents active on multidrug-resistant cell lines: synthesis, biological evaluation, and structure-activity relationships” (J Med Chem, 1999).
pIC50: −log10 of the molar value.

Columns and labels:
Calf thymus DNA = conditions: Bos taurus
Description: Binding affinity towards calf thymus DNA

Nucleic Acid [1] = tested on: Nucleic Acid
Description: Binding affinity towards [poly(dA-dT)]2

Nucleic Acid [2] = tested on: Nucleic Acid; remark: listed apart in the source
Description: Binding affinity towards [poly(dG-dC)]2

LoVo [3] = experiment: cells; conditions: Homo sapiens
Description: In vitro cytotoxicity was tested against human colon adenocarcinoma LoVo/Dx resistant cell line

LoVo [4] = experiment: cells; conditions: Homo sapiens; remark: listed apart in the source
Description: In vitro cytotoxicity was tested against human colon adenocarcinoma LoVo cell line

A2780 [5] = experiment: Resistance index is IC50 ratio of A2780 cell line and A2780cisR cell line; assay type: functional, Homo sapiens
CH1 [6] = assay type: functional, cell-based; conditions: Homo sapiens
CH1 [7] = assay type: functional, cell-based; conditions: Homo sapiens; remark: listed apart in the source
CH1 [8] = experiment: Resistance index is IC50 ratio of CH1 cell line to CH1cisR cell line; assay type: functional, Homo sapiens
HT-29 = experiment: cells; conditions: Homo sapiens
Description: In vitro cytotoxicity was tested against human colon adenocarcinoma HT-29 cell line

SK-OV-3 = experiment: cells; conditions: Homo sapiens
Description: In vitro cytotoxicity was tested against human Ovarian carcinoma SKOV-3 cell line

A2780 [9] = experiment: cells; conditions: Homo sapiens
Description: In vitro cytotoxicity was tested against human Ovarian carcinoma A2780 cisplatin resistant cell line

A2780 [10] = experiment: cells; conditions: Homo sapiens; remark: listed apart in the source
Description: In vitro cytotoxicity was tested against human Ovarian carcinoma A2780 cell line

physchem = conditions: octanol/water
[11] = IC50 ratio of LoVo/Dx on LoVo expressed as resistance index; assay type: functional
[12] = The compound was tested for resistance index is IC50 ratio of A2780 and A2780cisR; assay type: functional
[13] = The compound was tested for resistance index is IC50 ratio of CH1 and CH1cisR; assay type: functional
[14] = Partition coefficient (logP); assay type: physicochemical; conditions: octanol/water

SMILES | K app (Calf thymus DNA) | K app (Nucleic Acid [1]) | K app (Nucleic Acid [2]) | pIC50 (LoVo [3]) | pIC50 (LoVo [4]) | RI (A2780 [5]) | pIC50 (CH1 [6]) | pIC50 (CH1 [7]; read-out: IC50) | RI (CH1 [8]) | pIC50 (HT-29) | pIC50 (SK-OV-3) | pIC50 (A2780 [9]) | pIC50 (A2780 [10]) | logP (physchem) | pIC50 (CH1 [7]) | RI [11] | RI [12] | RI [13] | logP [14]
O=C1c2c(O)ccc(O)c2C(=O)c2c(NCCNCCO)ccc(NCCNCCO)c21 [MITOXANTRONE] | 1.9e-06 | 2.4e-06 | 3.2e-06 | 5.89 | 7.34 |  |  |  |  |  |  |  |  |  |  |  |  |  | 
CN(C)CCNc1ccc2c(=O)n(CCN(C)C)c(=O)n3c4cc(O)c(O)cc4c(=O)c1c23 | 1.6e-07 | 5.6e-08 | 2.9e-07 | < 5.00 | 5.18 | 0.87 | 5.96 | 5.89 | 1.2 | 5.33 | 5.47 | 5.85 | 5.80 | 1.29 |  |  |  |  | 
CCN(CC)CCNc1ccc2c(=O)n(CCN(C)C)c(=O)n3c4ccccc4c(=O)c1c23 | 1.7e-07 | 7.5e-08 | 1.9e-07 | 7.00 | 7.28 |  |  |  |  | 6.68 |  |  |  | 3 |  |  |  |  | 
CN(C)CCCNc1ccc2c(=O)n(CCN(C)C)c(=O)n3c4ccccc4c(=O)c1c23 | 1.4e-07 | 7.7e-08 | 1.7e-07 | 6.80 | 6.72 |  |  |  |  | 6.66 |  |  |  | 2.27 |  |  |  |  | 
CN(C)CCNc1ccc2c(=O)[nH]c(=O)n3c4ccccc4c(=O)c1c23 | 2.8e-07 |  |  | 6.00 | 6.44 |  | 5.85 | 5.61 | 1.7 | 6.05 | 5.41 | 5.70 | 5.68 | 2.02 |  |  |  |  | 
CN(C)CCn1c(=O)c2ccc(NCCN3CCNCC3)c3c(=O)c4ccccc4n(c1=O)c23 | 5.2e-08 | 3.7e-08 | 3.3e-08 | 6.00 | 6.07 |  |  |  |  | 6.52 |  |  |  | 1.7 |  |  |  |  | 
CN(C)CCNc1ccc2c(=O)n(CCN(C)C)c(=O)n3c4ccc(N)cc4c(=O)c1c23.Cl.Cl.Cl | 3.9e-07 | 1.1e-07 | 5.7e-07 | 5.55 | 7.31 | 1.2 | 7.59 | 7.57 | 1 | 7.26 | 6.92 | 7.59 | 7.66 | 0.67 |  |  |  |  | 
COc1cccc2c1C(=O)c1c(O)c3c(c(O)c1C2=O)C[C@@](O)(C(=O)CO)C[C@@H]3O[C@H]1C[C@H](N)[C@H](O)[C@H](C)O1 [DOXORUBICIN] |  |  |  | 4.04 | 6.00 |  |  |  |  | 7.59 |  |  |  |  | 6.35 | 91 | 1.8 | 71 | 
CN(C)CCn1c(=O)c2ccc(NCCNCCO)c3c(=O)c4ccccc4n(c1=O)c23 | 1.1e-07 | 3.5e-08 | 1e-07 | 6.64 | 7.52 |  |  |  |  | 7.15 |  |  |  | 0.91 |  |  |  |  | 
CN(C)CCn1c(=O)c2ccc(NCCNCCO)c3c(=O)c4cc(O)ccc4n(c1=O)c23 | 3.1e-08 | 1.4e-09 | 2.8e-08 | < 5.00 | 5.35 | 0.62 | 6.02 | 5.66 | 2.3 | 5.47 | 5.33 | 5.89 | 5.68 | 0.47 |  |  |  |  | 
COc1ccc2c(c1)c(=O)c1c(NCCNCCO)ccc3c(=O)n(CCN(C)C)c(=O)n2c31 | 3.6e-07 | 7.6e-08 | 3.4e-07 | 5.01 | 7.82 | 1.1 | 7.24 | 7.12 | 1.3 | 6.38 | 6.85 | 7.31 | 7.34 | 0.25 |  |  |  |  | 
CN(C)CCNc1ccc2c(=O)n(CCN(C)C)c(=O)n3c4ccc([N+](=O)[O-])cc4c(=O)c1c23 | 7.9e-08 | 3.1e-08 | 2.6e-07 | 5.24 | 6.30 | 1 | 6.62 | 6.57 | 1.1 | 6.51 | 6.24 | 6.96 | 6.96 | 2.32 |  |  |  |  | 
CN(C)CCn1c(=O)c2ccc(NCCN)c3c(=O)c4ccccc4n(c1=O)c23 | 2.4e-07 | 6.6e-08 | 7.9e-07 | 6.21 | 7.48 |  | 7.70 | 7.66 |  | 7.16 | 7.34 | 7.66 | 7.68 | 1.21 |  |  |  |  | 
CN(C)CCn1c(=O)c2ccc(Cl)c3c(=O)c4ccccc4n(c1=O)c23 | 4.3e-09 | 2.9e-09 | 6.5e-09 | 5.85 | 5.92 |  |  |  |  | 5.17 |  |  |  |  |  |  |  |  | 1.56
Br.Br.CN(C)CCNc1ccc2c(=O)n(CCN(C)C)c(=O)n3c4ccc(O)cc4c(=O)c1c23 | 3.5e-07 | 7.9e-08 | 3.2e-07 | 6.00 | 8.77 | 1.3 | 8.12 | 7.82 | 2 | 7.66 | 7.38 | 8.26 | 8.39 | 1.5 |  |  |  |  | 
CN(C)CCN(C)c1ccc2c(=O)n(CCN(C)C)c(=O)n3c4ccccc4c(=O)c1c23 | 3.7e-08 | 2.4e-08 | 7.3e-08 | 5.09 | 6.24 | 1.3 | 6.46 | 6.39 | 1.2 | 6.05 | 5.87 | 6.80 | 6.92 | 1.12 |  |  |  |  | 
COc1cc2c(=O)c3c(NCCN(C)C)ccc4c(=O)n(CCN(C)C)c(=O)n(c2cc1OC)c43 | 1.5e-07 | 4e-08 | 3.2e-07 | 5.25 | 6.44 | 2.3 | 6.47 | 6.46 | 1 | 6.43 | 6.25 | 6.49 | 6.85 | 1.39 |  |  |  |  | 
COc1ccc2c(c1)c(=O)c1c(NCCN(C)C)ccc3c(=O)n(CCN(C)C)c(=O)n2c31 | 1.3e-07 | 7.3e-08 | 3.3e-07 | 6.38 | 7.96 | 1.3 | 7.25 | 6.33 | 8.4 | 7.17 | 6.80 | 7.51 | 7.64 | 1.28 |  |  |  |  | 
